Measured values: ChEMBL document CHEMBL1143494 (Bioorg Med Chem Lett, 2005)
pIC50: −log10 of the molar value.

Experiments:
Homo sapiens = species on record: Homo sapiens; assay: Ratio of the inhibitory concentration against MMP-2 to that of MMP-13
[1] = target: T1, A disintegrin and metalloproteinase with thrombospondin motifs 4 (Homo sapiens, UniProt O75173); assay: Inhibitory concentration against Aggrecanase 1
T1 sequence (O75173 whole entry): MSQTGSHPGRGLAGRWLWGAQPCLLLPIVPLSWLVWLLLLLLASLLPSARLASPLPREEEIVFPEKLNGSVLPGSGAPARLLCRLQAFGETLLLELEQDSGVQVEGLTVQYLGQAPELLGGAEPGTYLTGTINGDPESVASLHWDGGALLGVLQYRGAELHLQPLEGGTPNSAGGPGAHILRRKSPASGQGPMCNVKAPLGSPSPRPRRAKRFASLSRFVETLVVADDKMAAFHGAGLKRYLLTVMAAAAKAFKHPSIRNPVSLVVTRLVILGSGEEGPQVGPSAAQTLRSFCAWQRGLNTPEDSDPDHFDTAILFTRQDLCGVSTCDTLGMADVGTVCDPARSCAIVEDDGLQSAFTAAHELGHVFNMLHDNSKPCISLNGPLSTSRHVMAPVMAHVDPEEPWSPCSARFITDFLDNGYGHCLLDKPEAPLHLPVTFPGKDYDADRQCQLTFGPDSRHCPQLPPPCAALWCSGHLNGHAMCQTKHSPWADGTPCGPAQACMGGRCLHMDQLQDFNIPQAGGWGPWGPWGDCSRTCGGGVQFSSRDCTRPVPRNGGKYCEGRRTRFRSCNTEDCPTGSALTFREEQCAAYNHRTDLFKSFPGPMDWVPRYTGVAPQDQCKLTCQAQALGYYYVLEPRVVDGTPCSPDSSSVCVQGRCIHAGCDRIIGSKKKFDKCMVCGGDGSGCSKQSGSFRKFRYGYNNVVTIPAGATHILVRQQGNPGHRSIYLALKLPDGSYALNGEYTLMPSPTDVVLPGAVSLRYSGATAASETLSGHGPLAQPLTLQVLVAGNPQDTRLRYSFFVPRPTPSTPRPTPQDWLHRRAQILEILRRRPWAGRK

[2] = target: T2, Disintegrin and metalloproteinase domain-containing protein 17 (Homo sapiens, UniProt P78536); assay: Percent inhibition at 25 uM against TACE
[3] = target: Matrix metalloproteinase-9 (Homo sapiens) (UniProt P14780); assay: Percent inhibition at 25 uM against MMP-9
Interstitial collagenase = target: T3, Interstitial collagenase (Homo sapiens, UniProt P03956); assay: Inhibitory concentration against MMP-1
T3 sequence (P03956 whole entry): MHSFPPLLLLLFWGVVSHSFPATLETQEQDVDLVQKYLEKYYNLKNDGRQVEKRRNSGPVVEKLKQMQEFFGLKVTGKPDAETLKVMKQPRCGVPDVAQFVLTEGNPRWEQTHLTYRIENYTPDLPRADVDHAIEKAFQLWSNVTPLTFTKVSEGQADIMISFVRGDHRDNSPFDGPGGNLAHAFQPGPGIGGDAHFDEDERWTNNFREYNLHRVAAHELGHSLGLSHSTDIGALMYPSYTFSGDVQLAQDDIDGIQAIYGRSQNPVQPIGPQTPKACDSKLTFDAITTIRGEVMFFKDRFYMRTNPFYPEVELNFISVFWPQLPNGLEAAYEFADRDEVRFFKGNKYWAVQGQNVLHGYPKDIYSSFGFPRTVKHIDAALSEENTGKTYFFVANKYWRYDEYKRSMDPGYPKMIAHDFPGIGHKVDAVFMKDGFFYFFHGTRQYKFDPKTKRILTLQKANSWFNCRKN

Stromelysin-1 = Stromelysin-1 (Homo sapiens, UniProt P08254); assay: Inhibitory concentration against MMP-3
Matrilysin = target: T4, Matrilysin (Homo sapiens, UniProt P09237); assay: Inhibitory concentration against MMP-7
T4 sequence (P09237 whole entry): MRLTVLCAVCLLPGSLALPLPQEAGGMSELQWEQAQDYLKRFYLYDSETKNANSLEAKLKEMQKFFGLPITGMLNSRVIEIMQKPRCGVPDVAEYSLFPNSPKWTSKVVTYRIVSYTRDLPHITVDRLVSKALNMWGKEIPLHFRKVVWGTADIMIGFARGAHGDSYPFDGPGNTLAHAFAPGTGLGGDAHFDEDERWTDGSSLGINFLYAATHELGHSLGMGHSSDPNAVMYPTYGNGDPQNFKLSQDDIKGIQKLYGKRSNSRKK

Neutrophil collagenase = Neutrophil collagenase (Homo sapiens, UniProt P22894); assay: Inhibitory concentration against MMP-8
[4] = target: Matrix metalloproteinase-14 (Homo sapiens, UniProt P50281)
Description: Inhibitory concentration against MMP-14

Collagenase 3 = Collagenase 3 (Homo sapiens, UniProt P45452); assay: Inhibitory concentration against MMP-13
[5] = target: 72 kDa type IV collagenase (Homo sapiens, UniProt P08253); assay: Inhibitory concentration against MMP-2
[6] = target: T2, Disintegrin and metalloproteinase domain-containing protein 17; assay: Inhibitory concentration against TACE

Sequence of 72 kDa type IV collagenase (P08253 whole entry, the tested form may be a part): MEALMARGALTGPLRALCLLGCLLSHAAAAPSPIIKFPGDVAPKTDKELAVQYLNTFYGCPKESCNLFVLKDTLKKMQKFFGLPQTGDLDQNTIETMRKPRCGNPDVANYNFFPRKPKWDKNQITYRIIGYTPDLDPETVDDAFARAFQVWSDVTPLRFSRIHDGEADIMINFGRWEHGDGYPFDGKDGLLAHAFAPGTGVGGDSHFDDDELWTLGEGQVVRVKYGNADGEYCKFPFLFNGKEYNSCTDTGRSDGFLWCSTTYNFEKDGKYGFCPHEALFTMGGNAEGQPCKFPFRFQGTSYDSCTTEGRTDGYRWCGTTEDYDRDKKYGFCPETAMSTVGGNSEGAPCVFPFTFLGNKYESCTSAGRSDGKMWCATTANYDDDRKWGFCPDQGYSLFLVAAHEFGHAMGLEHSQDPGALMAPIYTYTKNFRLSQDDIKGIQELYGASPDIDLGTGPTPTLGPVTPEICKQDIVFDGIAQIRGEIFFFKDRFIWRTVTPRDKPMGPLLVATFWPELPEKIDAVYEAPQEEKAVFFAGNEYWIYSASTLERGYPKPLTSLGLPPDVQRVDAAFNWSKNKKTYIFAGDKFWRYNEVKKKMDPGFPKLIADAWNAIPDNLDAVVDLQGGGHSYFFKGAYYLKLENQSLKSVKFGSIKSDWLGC
Sequence of Neutrophil collagenase (P22894 whole entry): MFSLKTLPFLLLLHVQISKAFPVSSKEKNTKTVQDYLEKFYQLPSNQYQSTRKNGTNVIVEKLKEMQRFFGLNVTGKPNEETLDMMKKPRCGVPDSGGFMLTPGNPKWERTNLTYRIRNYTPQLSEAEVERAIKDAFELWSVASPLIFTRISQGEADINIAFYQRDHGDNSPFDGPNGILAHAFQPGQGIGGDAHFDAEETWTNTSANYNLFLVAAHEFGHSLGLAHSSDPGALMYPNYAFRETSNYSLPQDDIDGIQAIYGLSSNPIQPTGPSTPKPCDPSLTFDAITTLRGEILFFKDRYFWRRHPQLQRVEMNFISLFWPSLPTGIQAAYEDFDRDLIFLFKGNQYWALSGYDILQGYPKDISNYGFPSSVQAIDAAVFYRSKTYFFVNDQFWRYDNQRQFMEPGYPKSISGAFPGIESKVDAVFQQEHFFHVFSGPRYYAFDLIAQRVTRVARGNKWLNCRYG
Sequence of Matrix metalloproteinase-9 (Homo sapiens) (P14780 whole entry): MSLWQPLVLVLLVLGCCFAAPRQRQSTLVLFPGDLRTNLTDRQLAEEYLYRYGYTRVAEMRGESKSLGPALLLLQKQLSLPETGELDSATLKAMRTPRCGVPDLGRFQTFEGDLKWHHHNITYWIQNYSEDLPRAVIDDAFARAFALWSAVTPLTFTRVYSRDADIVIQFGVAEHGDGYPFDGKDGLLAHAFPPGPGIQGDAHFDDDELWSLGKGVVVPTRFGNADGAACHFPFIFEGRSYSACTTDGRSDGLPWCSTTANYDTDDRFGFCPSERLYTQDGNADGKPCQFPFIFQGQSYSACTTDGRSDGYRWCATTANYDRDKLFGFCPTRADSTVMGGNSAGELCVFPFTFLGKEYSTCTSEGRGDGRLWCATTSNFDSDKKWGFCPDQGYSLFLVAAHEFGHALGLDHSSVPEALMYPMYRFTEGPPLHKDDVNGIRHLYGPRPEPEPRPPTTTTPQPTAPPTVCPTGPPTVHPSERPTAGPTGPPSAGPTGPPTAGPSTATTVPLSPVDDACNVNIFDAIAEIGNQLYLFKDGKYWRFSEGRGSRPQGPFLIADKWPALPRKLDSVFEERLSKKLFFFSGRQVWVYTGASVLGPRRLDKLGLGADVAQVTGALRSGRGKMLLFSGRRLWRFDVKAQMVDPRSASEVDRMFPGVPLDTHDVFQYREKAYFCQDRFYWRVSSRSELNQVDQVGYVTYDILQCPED
T2 sequence (P78536 whole entry, the tested form may be a part): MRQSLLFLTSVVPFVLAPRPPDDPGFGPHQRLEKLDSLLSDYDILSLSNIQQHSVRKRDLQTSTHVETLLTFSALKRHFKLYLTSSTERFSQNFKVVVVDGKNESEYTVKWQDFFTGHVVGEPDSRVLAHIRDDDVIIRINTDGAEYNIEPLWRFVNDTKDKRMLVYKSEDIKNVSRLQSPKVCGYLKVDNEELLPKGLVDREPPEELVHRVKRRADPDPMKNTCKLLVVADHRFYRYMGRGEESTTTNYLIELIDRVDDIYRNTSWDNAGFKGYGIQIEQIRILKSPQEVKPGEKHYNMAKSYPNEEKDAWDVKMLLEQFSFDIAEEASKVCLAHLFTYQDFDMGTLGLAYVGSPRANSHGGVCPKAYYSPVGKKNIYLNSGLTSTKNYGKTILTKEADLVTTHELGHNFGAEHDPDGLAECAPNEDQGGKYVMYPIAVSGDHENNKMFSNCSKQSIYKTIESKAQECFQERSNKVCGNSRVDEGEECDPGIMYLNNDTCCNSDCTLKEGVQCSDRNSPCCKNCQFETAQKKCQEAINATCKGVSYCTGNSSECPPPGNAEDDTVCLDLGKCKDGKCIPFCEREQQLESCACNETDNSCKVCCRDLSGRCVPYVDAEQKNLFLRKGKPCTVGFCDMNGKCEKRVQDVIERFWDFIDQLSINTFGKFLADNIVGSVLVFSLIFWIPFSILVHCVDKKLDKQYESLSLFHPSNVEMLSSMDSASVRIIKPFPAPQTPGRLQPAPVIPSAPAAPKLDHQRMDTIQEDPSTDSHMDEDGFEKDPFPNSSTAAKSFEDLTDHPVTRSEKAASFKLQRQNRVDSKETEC
Sequence of Stromelysin-1 (P08254 whole entry): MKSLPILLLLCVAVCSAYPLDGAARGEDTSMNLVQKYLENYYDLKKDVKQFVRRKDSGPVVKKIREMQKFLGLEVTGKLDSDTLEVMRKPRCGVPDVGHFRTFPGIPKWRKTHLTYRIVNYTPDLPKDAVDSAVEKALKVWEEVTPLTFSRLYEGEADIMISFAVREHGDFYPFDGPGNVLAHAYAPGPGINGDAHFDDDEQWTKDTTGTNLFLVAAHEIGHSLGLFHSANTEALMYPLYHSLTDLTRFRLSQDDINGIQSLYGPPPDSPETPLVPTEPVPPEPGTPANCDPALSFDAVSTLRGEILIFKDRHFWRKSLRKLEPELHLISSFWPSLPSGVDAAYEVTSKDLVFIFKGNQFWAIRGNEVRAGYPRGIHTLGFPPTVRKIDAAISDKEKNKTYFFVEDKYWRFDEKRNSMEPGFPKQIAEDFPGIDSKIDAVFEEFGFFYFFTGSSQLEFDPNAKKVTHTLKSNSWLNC

With Cc1c(C(=O)Nc2ccc(-c3ccc(S(=O)(=O)N[C@H](C(=O)O)C(C)C)cc3)cc2)oc2ccc(Br)cc12 the Ratio (Homo sapiens) was 27.
For CCc1ccc2oc(C(=O)Nc3ccc(-c4ccc(S(=O)(=O)N[C@H](C(=O)O)C(C)C)cc4)cc3)c(C)c2c1O, the pIC50 [1] was 5.36, the inhibition [2] was 42% and the inhibition [3] was 55%. The pIC50 (Interstitial collagenase) was 4.63, the pIC50 (Stromelysin-1) was 6.31 and the pIC50 (Matrilysin) was 6.34. It also gave a pIC50 (Neutrophil collagenase) of 7.03, a Ratio (Homo sapiens) of 250 and a pIC50 [4] of 4.80.
With Cc1c(C(=O)Nc2ccc(-c3ccc(S(=O)(=O)N[C@H](C(=O)O)C(C)C)cc3)cc2)oc2ccc(Cl)c(OC(C)C)c12 the pIC50 [1] was 4.84, the inhibition [2] was 98% and the inhibition [3] was 51%. For the same compound, the pIC50 (Interstitial collagenase) was 4.43, the pIC50 (Stromelysin-1) was 5.96 and the pIC50 (Matrilysin) was 5.79. The pIC50 (Neutrophil collagenase) was 6.96, the Ratio (Homo sapiens) was 275 and the pIC50 [4] was 4.30.
COc1c(CO)ccc2oc(C(=O)Nc3ccc(-c4ccc(S(=O)(=O)N[C@H](C(=O)O)C(C)C)cc4)cc3)c(C)c12 was tested, and the pIC50 (Collagenase 3) was 8.11, the pIC50 [5] was 5.85 and the Ratio (Homo sapiens) was 180.
COc1c(C#N)ccc2oc(C(=O)Nc3ccc(-c4ccc(S(=O)(=O)N[C@H](C(=O)O)C(C)C)cc4)cc3)c(C)c12 gave a Ratio (Homo sapiens) of 175.
In the case of CC(C)[C@H](NS(=O)(=O)c1ccc(-c2ccc(NC(=O)c3cc4cc(Br)ccc4o3)cc2)cc1)C(=O)O, the pIC50 (Collagenase 3) was 9.21 and the Ratio (Homo sapiens) was 1.
Compound COc1c(Br)ccc2oc(C(=O)Nc3ccc(-c4ccc(S(=O)(=O)N[C@H](C(=O)O)C(C)C)cc4)cc3)c(C)c12 has a pIC50 [1] of 5.25, an inhibition [3] of 66% and a pIC50 [6] of 4.47. For the same compound, the pIC50 (Stromelysin-1) was 6.84, the pIC50 (Matrilysin) was 6.06 and the pIC50 (Neutrophil collagenase) was 7.14. The Ratio (Homo sapiens) was 740 and the pIC50 [4] was 4.82.
Work on Cc1c(C(=O)Nc2ccc(-c3ccc(S(=O)(=O)N[C@@H](C(=O)O)C(C)C)cc3)cc2)oc2ccccc12 yielded a pIC50 (Collagenase 3) of 7.77, a pIC50 [5] of 6.79 and a Ratio (Homo sapiens) of 10.
Compound Cc1c(C(=O)Nc2ccc(-c3ccc(S(=O)(=O)N[C@H](C(=O)O)C(C)C)cc3)cc2)oc2ccccc12 has a Ratio (Homo sapiens) of 44.
COc1c(I)ccc2oc(C(=O)Nc3ccc(-c4ccc(S(=O)(=O)N[C@H](C(=O)O)C(C)C)cc4)cc3)c(C)c12 showed a pIC50 [1] of 4.82, an inhibition [2] of 38% and an inhibition [3] of 51%. The pIC50 (Interstitial collagenase) was 4.22, the pIC50 (Stromelysin-1) was 5.97 and the pIC50 (Matrilysin) was 5.52. The pIC50 (Neutrophil collagenase) was 6.39, the Ratio (Homo sapiens) was 650 and the pIC50 [4] was 4.52.
Compound CC(=O)c1ccc2oc(C(=O)Nc3ccc(-c4ccc(S(=O)(=O)N[C@H](C(=O)O)C(C)C)cc4)cc3)c(C)c2c1O has a Ratio (Homo sapiens) of 20.
CC(C)[C@H](NS(=O)(=O)c1ccc(-c2ccc(NC(=O)c3oc4ccccc4c3-c3ccccc3)cc2)cc1)C(=O)O showed a pIC50 [5] of 5.92 and a Ratio (Homo sapiens) of 6.
With COc1c(C)ccc2oc(C(=O)Nc3ccc(-c4ccc(S(=O)(=O)N[C@H](C(=O)O)C(C)C)cc4)cc3)c(C)c12 the pIC50 [1] was 5.07, the inhibition [2] was 39% and the inhibition [3] was 76%. The pIC50 (Interstitial collagenase) was 4.43, the pIC50 (Stromelysin-1) was 6.35 and the pIC50 (Matrilysin) was 6.27. The pIC50 (Neutrophil collagenase) was 7.28, the Ratio (Homo sapiens) was 330 and the pIC50 [4] was 4.82.
For COc1c(Cl)ccc2oc(C(=O)Nc3ccc(-c4ccc(S(=O)(=O)N[C@H](C(=O)O)C(C)C)cc4)cc3)c(C)c12, the Ratio (Homo sapiens) was 785.
COc1cccc2oc(C(=O)Nc3ccc(-c4ccc(S(=O)(=O)N[C@H](C(=O)O)C(C)C)cc4)cc3)cc12 showed a Ratio (Homo sapiens) of 7.
COc1c(Br)ccc2oc(C(=O)Nc3ccc(-c4ccc(S(=O)(=O)N[C@@H](C(=O)O)C(C)C)cc4)cc3)c(C)c12 was tested, and the pIC50 (Collagenase 3) was 8.47, the pIC50 [5] was 6.16 and the Ratio (Homo sapiens) was 202.
CC(C)[C@@H](NS(=O)(=O)c1ccc(-c2ccc(NC(=O)c3cc4ccccc4o3)cc2)cc1)C(=O)O gave a pIC50 [5] of 8.34.
CCc1c(C(=O)Nc2ccc(-c3ccc(S(=O)(=O)N[C@H](C(=O)O)C(C)C)cc3)cc2)oc2ccccc12 gave a pIC50 (Collagenase 3) of 7.26 and a Ratio (Homo sapiens) of 32.
For COc1cccc2oc(C(=O)Nc3ccc(-c4ccc(S(=O)(=O)N[C@H](C(=O)O)C(C)C)cc4)cc3)c(C)c12, the Ratio (Homo sapiens) was 110.
COc1c(Br)ccc2oc(C(=O)Nc3ccc(-c4ccc(S(=O)(=O)N[C@H](C(=O)O)C(C)C)cc4)cc3)cc12 gave a pIC50 (Collagenase 3) of 9.40, a pIC50 [5] of 8.15 and a Ratio (Homo sapiens) of 18.
CCc1ccc2oc(C(=O)Nc3ccc(-c4ccc(S(=O)(=O)N[C@H](C(=O)O)C(C)C)cc4)cc3)c(C)c2c1OCc1ccccc1 showed a Ratio (Homo sapiens) of 65.
In the case of CCc1ccc2oc(C(=O)Nc3ccc(-c4ccc(S(=O)(=O)N[C@H](C(=O)O)C(C)C)cc4)cc3)c(C)c2c1OC, the pIC50 [1] was < 4.82, the inhibition [2] was 43% and the inhibition [3] was 64%. For the same compound, the pIC50 (Interstitial collagenase) was 4.55, the pIC50 (Stromelysin-1) was 6.25 and the pIC50 (Matrilysin) was 5.90. It also gave a pIC50 (Neutrophil collagenase) of 7.00, a Ratio (Homo sapiens) of 660 and a pIC50 [4] of 4.52.
Compound CCc1ccc2oc(C(=O)Nc3ccc(-c4ccc(S(=O)(=O)N[C@H](C(=O)O)C(C)C)cc4)cc3)c(C)c2c1OC(C)C has a Ratio (Homo sapiens) of 260.
